Data taken from US20090156577A1, “7-AMINO ALKYLIDENYL-HETEROCYCLIC QUINOLONES AND NAPHTHYRIDONES” (priority 2004, published 2009).
In brackets after ≈: the same amount, converted by molar mass. Structures can show the parent of a compound that is named as a salt. Where two headings read alike, the source gives them in different places.

Tested on: pathogenic bacteria
Assay: MIC by microdilution broth method (NCCLS M7-A4), in vitro antibacterial activity
Format: cell-based
Procedure: Minimal inhibitory concentration (MIC) has been an indicator of in vitro antibacterial activity widely used in the art. The in vitro antimicrobial activity of the compounds was determined by the microdilution broth method following the test method from the National Committee for Clinical Laboratory Standards (NCCLS). This method is described in the NCCLS Document M7-A4, Vol. 17, No. 2, “Methods for Dilution Antimicrobial Susceptibility Test for Bacteria that Grow Aerobically—Fourth Edition”, which is incorporated herein by reference.
In this method two-fold serial dilutions of drug in cation adjusted Mueller-Hinton broth are added to wells in microdilution trays. The test organisms are prepared by adjusting the turbidity of actively growing broth cultures so that the final concentration of test organism after it is added to the wells is approximately 5×10^4 CFU/well.
Following inoculation of the microdilution trays, the trays are incubated at 35° C. for 16-20 hours and then read. […] The amount of growth in the wells containing the test compound is compared with the amount of growth in the growth-control wells (no test compound) used in each tray. As set forth in Table 5, compounds of the present invention were tested against a variety of pathogenic bacteria resulting in a range of activities depending on the organism tested.

[1] = Streptococcus pneumoniae, Organism B: fluoroquinolone-resistant clinical isolate of Streptococcus pneumoniae (QRDR amino acid substitutions)
[2] = Streptococcus pneumoniae, Organism C: fluoroquinolone-resistant clinical isolate of Streptococcus pneumoniae (QRDR amino acid substitutions)
[3] = Streptococcus pneumoniae, Organism D: fluoroquinolone-resistant clinical isolate of Streptococcus pneumoniae (QRDR amino acid substitutions)
[4] = Staphylococcus aureus, Organism A: Staphylococcus aureus OC4172, read-out: MIC
[5] = Streptococcus pneumoniae, ATCC49619, Organism E: Streptococcus pneumoniae ATCC 49619, read-out: MIC

SMILES | MIC (Staphylococcus aureus, Organism A: Staphylococcus aureus OC4172) [µg/mL] | MIC (Streptococcus pneumoniae, ATCC49619, Organism E: Streptococcus pneumoniae ATCC 49619) [µg/mL] | MIC [1] [µg/mL] | MIC [2] [µg/mL] | MIC [3] [µg/mL] | MIC [4] [µg/mL] | MIC [5] [µg/mL] | MIC (Organism C: fluoroquinolone-resistant clinical isolate of Streptococcus pneumoniae (QRDR amino acid substitutions)) [µg/mL] | MIC (Organism E: Streptococcus pneumoniae ATCC 49619) [µg/mL] | MIC (Organism A: Staphylococcus aureus OC4172) [µg/mL]
CNCC(Cl)=C1CCN(c2c(F)cc3c(=O)c(C(=O)O)cn(C4CC4)c3c2OC)CC1 [Compound 72, 7-[4-(1-Chloro-2-methylamino-ethylidene)-piperidin-1-yl]-1-cyclopropyl-6-fluoro-8-methoxy-4-oxo-1,4-dihydroquinoline-3-carboxylic Acid Trifluoroacetic Acid Salt] | 0.03 | 0.12 | 0.25 | 0.5 | 0.25 | – | – | – | – | –
NCC(Cl)=C1CCN(c2c(F)cc3c(=O)c(C(=O)O)cn(C4CC4)c3c2OC(F)F)CC1 [Compound 73, 7-[4-(2-Amino-1-chloro-ethylidene)-piperidin-1-yl]-1-cyclopropyl-8-difluoromethoxy-6-fluoro-4-oxo-1,4-dihydro-quinoline-3-carboxylic acid] | – | – | 0.5 (≈ 1.06 µM) | 1 (≈ 2.12 µM) | 0.25 (≈ 0.53 µM) | 0.06 (≈ 0.127 µM) | 0.12 (≈ 0.254 µM) | – | – | –
CNCC(C)=C1CCN(c2c(F)cc3c(=O)c(C(=O)O)cn(C4CC4)c3c2OC(F)F)CC1 [Compound 74, 1-Cyclopropyl-8-difluoromethoxy-6-fluoro-7-[4-(1-methyl-2-methylamino-ethylidene)-piperidin-1-yl]-4-oxo-1,4-dihydro-quinoline-3-carboxylic acid] | – | – | – | – | 0.25 (≈ 0.537 µM) | 0.06 (≈ 0.129 µM) | – | 1 (≈ 2.15 µM) | 0.12 (≈ 0.258 µM) | –
CCNCC(Cl)=C1CCN(c2c(F)cc3c(=O)c(C(=O)O)cn(C4CC4)c3c2OC)CC1 [Compound 75, 7-[4-(1-Chloro-2-ethylamino-ethylidene)-piperidin-1-yl]-1-cyclopropyl-6-fluoro-8-methoxy-4-oxo-1,4-dihydro-quinoline-3-carboxylic acid] | – | – | 1 (≈ 2.16 µM) | 1 (≈ 2.16 µM) | 1 (≈ 2.16 µM) | 0.12 (≈ 0.259 µM) | 0.25 (≈ 0.539 µM) | – | – | –
NCC(Cl)=C1CCN1c1cc2c(cc1F)c(=O)c(C(=O)O)cn2C1CC1 [Compound 76, 7-[4-(2-Amino-1-chloro-ethylidene)-azetidin-1-yl}-1-cyclopropyl-6-fluoro-4-oxo-1,4-dihydro-quinoline-3-carboxylic acid] | – | – | 2 (≈ 5.29 µM) | 1 (≈ 2.65 µM) | 2 (≈ 5.29 µM) | 0.03 (≈ 0.0794 µM) | 0.25 (≈ 0.662 µM) | – | – | –
C[C@H]1COc2c(N3CC(=C(Cl)CN)C3)c(F)cc3c(=O)c(C(=O)O)cn1c23 [Compound 77, 9-[3-(2-Amino-1-chloro-ethylidene)-azetidin-1-yl}-8-fluoro-(3S)-3-methyl-6-oxo-2,3-dihydro-6H-1-oxa-3a-aza-phenalene-5-carboxylic acid] | – | – | 8 (≈ 20.3 µM) | 16 (≈ 40.6 µM) | 16 (≈ 40.6 µM) | 0.12 (≈ 0.305 µM) | 1 (≈ 2.54 µM) | – | – | –
COc1c(N2CCC(=C(F)CN)C(C)(C)C2)c(F)cc2c(=O)c(C(=O)O)cn(C3CC3)c12 [Compound 78, 7-[4-(2-Amino-1-fluoro-ethylidene)-3,3-dimethyl-piperidin-1-yl]-1-cyclopropyl-6-fluoro-8-methoxy-4-oxo-1,4-dihydro-quinoline-3-carboxylic acid] | – | – | 2 (≈ 4.47 µM) | 1 (≈ 2.23 µM) | – | 1 (≈ 2.23 µM) | 0.25 (≈ 0.559 µM) | – | – | –
CNCC(C)=C1CCN(c2nc3c(cc2F)c(=O)c(C(=O)O)cn3C2CC2)CC1 [Compound 79, 1-Cyclopropyl-6-fluoro-7-[4-(1-methyl-2-methylamino-ethylidene)-piperidin-1-yl]-4-oxo-1,4-dihydro-[1,8]naphthyridine-3-carboxylic acid] | – | – | – | 2 (≈ 4.99 µM) | 1 (≈ 2.5 µM) | – | 0.25 (≈ 0.624 µM) | – | – | 0.06 (≈ 0.15 µM)
NCC(F)=C1CN(c2nc3c(cc2F)c(=O)c(C(=O)O)cn3C2CC2)C1 [Compound 80, 7-[3-(2-Amino-1-fluoro-ethylidene)-azetidin-1-yl]-1-cyclopropyl-6-fluoro-4-oxo-1,4-dihydro-[1,8]naphthyridine-3-carboxylic acid] | – | – | 0.5 (≈ 1.38 µM) | 2 (≈ 5.52 µM) | 1 (≈ 2.76 µM) | 0.06 (≈ 0.166 µM) | 0.12 (≈ 0.331 µM) | – | – | –
NCC(Cl)=C1CN(c2nc3c(cc2F)c(=O)c(C(=O)O)cn3C2CC2)C1 [Compound 81, 7-[3-(2-Amino-1-chloro-ethylidene)-azetidin-1-yl}-1-cyclopropyl-6-fluoro-4-oxo-1,4-dihydro-[1,8]naphthyridine-3-carboxylic acid] | – | – | 1 (≈ 2.64 µM) | 2 (≈ 5.28 µM) | 2 (≈ 5.28 µM) | 0.06 (≈ 0.158 µM) | 0.25 (≈ 0.66 µM) | – | – | –
NCC(F)=C1CN(c2c(F)cc3c(=O)c(C(=O)O)cn(C4CC4)c3c2OC(F)F)C1 [Compound 160, 7-[3-(2-Amino-1-fluoro-ethylidene)-azetidin-1-yl]-1-cyclopropyl-8-difluoromethoxy-6-fluoro-4-oxo-1,4-dihydro-quinoline-3-carboxylic acid] | – | – | 2 (≈ 4.68 µM) | 2 (≈ 4.68 µM) | 1 (≈ 2.34 µM) | 0.06 (≈ 0.14 µM) | 0.12 (≈ 0.281 µM) | – | – | –
O=C(O)c1cn(C2CC2)c2nc(N3CCC(=CCO)CC3)c(F)cc2c1=O [Compound 163, 1-Cyclopropyl-6-fluoro-7-[4-(2-hydroxy-ethylidene)-piperidin-1-yl]-4-oxo-1,4-dihydro-[1,8]naphthyridine-3-carboxylic acid] | – | – | 4 (≈ 10.7 µM) | 4 (≈ 10.7 µM) | – | 0.12 (≈ 0.321 µM) | 1 (≈ 2.68 µM) | – | – | –
O=C(O)c1cn(C2CC2)c2cc(N3CCC(=CCO)CC3)c(F)cc2c1=O [Compound 164, 1-Cyclopropyl-6-fluoro-7-[4-(2-hydroxy-ethylidene)-piperidin-1-yl]-4-oxo-1,4-dihydro-quinoline-3-carboxylic acid] | – | – | 32 (≈ 85.9 µM) | > 32 | – | 0.12 (≈ 0.322 µM) | 2 (≈ 5.37 µM) | – | – | –
CC(C)NCC(Cl)=C1CCN(c2nc3c(cc2F)c(=O)c(C(=O)O)cn3C2CC2)CC1 [Compound 166, 7-[4-(1-Chloro-2-isopropylamino-ethylidene)-piperidin-1-yl]-1-cyclopropyl-6-fluoro-4-oxo-1,4-dihydro-[1,8]naphthyridine-3-carboxylic acid] | – | – | – | 4 (≈ 8.91 µM) | 4 (≈ 8.91 µM) | 0.5 (≈ 1.11 µM) | 1 (≈ 2.23 µM) | – | – | –
O=C(O)c1cn(C2CC2)c2nc(N3CCC(=C(F)CO)CC3)c(F)cc2c1=O [Compound 172, 1-Cyclopropyl-6-fluoro-7-[4-(1-fluoro-2-hydroxy-ethylidene)-piperidin-1-yl]-4-oxo-1,4-dihydro-[1,8]naphthyridine-3-carboxylic acid] | – | – | 32 (≈ 81.8 µM) | 16 (≈ 40.9 µM) | – | 0.06 (≈ 0.153 µM) | 1 (≈ 2.56 µM) | – | – | –
CC1(C)CN(c2nc3c(cc2F)c(=O)c(C(=O)O)cn3C2CC2)CCC1=C(F)CN [Compound 175, 7-[4-(2-Amino-1-fluoro-ethylidene)-3,3-dimethyl-piperidin-1-yl]-1-cyclopropyl-6-fluoro-4-oxo-1,4-dihydro-[1,8]naphthyridine-3-carboxylic acid] | – | – | 2 (≈ 4.78 µM) | 2 (≈ 4.78 µM) | 1 (≈ 2.39 µM) | 0.5 (≈ 1.19 µM) | 0.25 (≈ 0.597 µM) | – | – | –
CC1(C)CN(c2nc3c(cc2F)c(=O)c(C(=O)O)cn3C2CC2)CCC1=C(Br)CN [Compound 176, 7-[4-(2-Amino-1-bromo-ethylidene)-3,3-dimethyl-piperidin-1-yl]-1-cyclopropyl-6-fluoro-4-oxo-1,4-dihydro-[1,8]naphthyridine-3-carboxylic acid] | – | – | 0.5 (≈ 1.04 µM) | 1 (≈ 2.09 µM) | 1 (≈ 2.09 µM) | 0.25 (≈ 0.522 µM) | 0.12 (≈ 0.25 µM) | – | – | –
CN(C)CCNCC(Cl)=C1CCN(c2nc3c(cc2F)c(=O)c(C(=O)O)cn3C2CC2)CC1 [Compound 177, 7-{4-[1-Chloro-2-(2-dimethylamino-ethylamino)-ethylidene]-piperidin-1-yl}-1-cyclopropyl-6-fluoro-4-oxo-1,4-dihydro-[1,8]naphthyridine-3-carboxylic acid] | – | – | 8 (≈ 16.7 µM) | > 16 | > 16 | 1 (≈ 2.09 µM) | 4 (≈ 8.37 µM) | – | – | –
C=CC(Cl)=C1CCN(c2nc3c(cc2F)c(=O)c(C(=O)O)cn3C2CC2)CC1 [Compound 178, 7-[4-(1-Chloro-allylidene)-piperidin-1-yl]-1-cyclopropyl-6-fluoro-4-oxo-1,4-dihydro-[1,8]naphthyridine-3-carboxylic acid] | – | – | 1 (≈ 2.48 µM) | 8 (≈ 19.8 µM) | 4 (≈ 9.9 µM) | 0.5 (≈ 1.24 µM) | 4 (≈ 9.9 µM) | – | – | –
CCOC(=O)OCC(F)=C1CCN(c2nc3c(cc2F)c(=O)c(C(=O)O)cn3C2CC2)CC1 [Compound 179, 1-Cyclopropyl-7-[4-(2-ethoxycarbonyloxy-1-fluoro-ethylidene)-piperidin-1-yl]-6-fluoro-4-oxo-1,4-dihydro-[1,8]naphthyridine-3-carboxylic acid] | – | – | > 16 | > 16 | > 16 | 0.5 (≈ 1.08 µM) | 2 (≈ 4.32 µM) | – | – | –
CN(C)CC(Cl)=C1CCN(c2nc3c(cc2F)c(=O)c(C(=O)O)cn3C2CC2)CC1 [Compound 180, 7-[4-(1-Chloro-2-dimethylamino-ethylidene)-piperidin-1-yl]-1-cyclopropyl-6-fluoro-4-oxo-1,4-dihydro-[1,8]naphthyridine-3-carboxylic acid] | – | – | – | 8 (≈ 18.4 µM) | 2 (≈ 4.6 µM) | 0.5 (≈ 1.15 µM) | 0.5 (≈ 1.15 µM) | – | – | –
